# In patent publication EP1210336B1, “SUBSTITUTED BENZIMIDAZOLES AS NON-NUCLEOSIDE INHIBITORS OF REVERSE TRANSCRIPTASE” (THE UNITED STATES OF AMERICA, as represented by the …, priority 1999, dated 2001):
# Read-outs that look alike come from different tables or passages of the source.
# Experiments:
# [1] = target: T1, HIV-1 WT RT (Human immunodeficiency virus type 1 group M subtype B, UniProt P03366); assay: biochemical; settings: for inhibition at 10 µM: read-out: %inhibn (10µM)
# T1 construct: purified RT protein (0.015 mg/mL) was incubated in a 100 µL reaction mixture
# [2] = tested on: HIV-1 variant K101E; assay: Cytopathic cell killing assay, cross-resistance profile, infected MT-4 cells; type: cell-based
# In short: (§1)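 MT-4 cells, 5 x 10^3 per well, were infected with pre-titered HIV-1 (wild-type NL4-3 or RT-mutant isolates) at an MOI giving complete killing by day 6 (e.g., 0.01-0.05). Compounds were added as serial half-log dilutions in triplicate. After 6 days at 37°C, viability was read by XTT reduction at 450 nm.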
# [3] = tested on: HIV-1 variant Y188C; assay: as above; type: cell-based
# In short: as §1
# [4] = tested on: HIV-1 variant A98G; assay: as above; type: cell-based
# In short: as §1
# [5] = tested on: HIV-1 isolate 4xAZT; assay: as above; type: cell-based
# In short: as §1
# [6] = tested on: HIV-1 isolate 4xAZT/Y181C; assay: as above; type: cell-based
# In short: as §1
# [7] = tested on: HIV-1 variant L100I; assay: as above; type: cell-based
# In short: as §1
# [8] = tested on: HIV-1 variant L74V; assay: as above; type: cell-based
# In short: as §1
# [9] = tested on: HIV-1 variant V106A; assay: as above; type: cell-based
# In short: as §1
# [10] = tested on: HIV-1 variant K103N; assay: as above; type: cell-based; settings: for EC50: isolate K103N
# In short: as §1
# [11] = tested on: HIV-1 variant V108I; assay: as above; type: cell-based
# In short: as §1
# [12] = tested on: HIV-1 isolate 4xAZT/L100I; assay: as above; type: cell-based
# In short: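 Cytopathic protection assay: cells at 5 x 10^3/well infected with pre-titered HIV isolate (e.g., MOI 0.01-0.05), compound serial half-log dilutions in triplicate.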
# [13] = Table 1, WT RT, 10 µM drug concentration
# [14] = Human immunodeficiency virus 1, MT4, Table 4, isolate K101E
# [15] = Human immunodeficiency virus 1, MT4, Table 8, isolate K101E
# [16] = Human immunodeficiency virus 1, MT4, Table 9, isolate KIOIE
# [17] = Human immunodeficiency virus 1, MT4, Table 4, isolate Y188C
# [18] = Human immunodeficiency virus 1, MT4, Table 8, isolate Y 188C
# [19] = Human immunodeficiency virus 1, MT4, Table 9, isolate Y188C
# [20] = Human immunodeficiency virus 1, MT4, Table 4, isolate A98G
# [21] = Human immunodeficiency virus 1, MT4, Table 8, isolate A9SG
# [22] = Human immunodeficiency virus 1, MT4, Table 9, isolate A98G
# [23] = Human immunodeficiency virus 1, MT4, Table 4, isolate 4xAZT
# [24] = Human immunodeficiency virus 1, MT4, Table 8, isolate 4XAZT
# [25] = Human immunodeficiency virus 1, MT4, Table 4, isolate 4xAZT/Y181C
# [26] = Human immunodeficiency virus 1, MT4, Table 8, isolate 4XAZT /Y181C
# [27] = Human immunodeficiency virus 1, MT4, Table 4, isolate L1001
# [28] = Human immunodeficiency virus 1, MT4, Table 8, isolate 1.1001
# [29] = Human immunodeficiency virus 1, MT4, Table 9, isolate L1001
# [30] = Human immunodeficiency virus 1, MT4, Table 4, isolate L74V
# [31] = Human immunodeficiency virus 1, MT4, Table 8, isolate 1.74V
# [32] = Human immunodeficiency virus 1, MT4, Table 9, isolate 1.74 V
# [33] = Human immunodeficiency virus 1, MT4, Table 4, isolate V106A
# [34] = Human immunodeficiency virus 1, MT4, Table 8, isolate V 106A
# [35] = Human immunodeficiency virus 1, MT4, Table 9, isolate V106A
# [36] = Human immunodeficiency virus 1, MT4, Table 4
# [37] = Human immunodeficiency virus 1, MT4, Table 8
# [38] = Human immunodeficiency virus 1, MT4, Table 9
# [39] = Human immunodeficiency virus 1, MT4, Table 4, isolate V108I
# [40] = Human immunodeficiency virus 1, MT4, Table 8, isolate V1081
# [41] = Human immunodeficiency virus 1, MT4, Table 9, isolate V1081
# [42] = Human immunodeficiency virus 1, MT4, Table 4, isolate 4xAZT/L.1001
# [43] = Human immunodeficiency virus 1, MT4, Table 8, isolate 4XA7T L 1001
# [44] = Human immunodeficiency virus 1, MT4, Table 9, isolate 4XAZT /L1001
compound,measurement,setting,value
"Fc1cccc(F)c1C1SCc2nc3ccccc3n21 (centres unmarked) [TZB, 1-(2,6-difluorophenyl)-1H,3H-thiazolo[3,4-a]benzimidazole, reference compound]",IC50,[1],500 nM
same,inhibition at 10 µM,[1]; [13],84%
same,EC50,[2]; [14],> 20 µM
same,EC50,[2]; [15],> 10 µM
same,EC50,[2]; [16],> 10 µM
same,EC50,[3]; [17],> 20 µM
same,EC50,[3]; [18],> 20 µM
same,EC50,[3]; [19],> 20 µM
same,EC50,[4]; [20],17700 nM
same,EC50,[4]; [21],10000 nM
same,EC50,[4]; [22],10000 nM
same,EC50,[5]; [23],1500 nM
same,EC50,[5]; [24],1100 nM
same,EC50,[6]; [25],14500 nM
same,EC50,[6]; [26],> 10000 nM
same,EC50,"[6]; Human immunodeficiency virus 1, MT4, Table 9, isolate 4XAZT /Y181C",> 10000 nM
same,EC50,[7]; [27],12.2 µM
same,EC50,[7]; [28],6.6 µM
same,EC50,[7]; [29],6.6 µM
same,EC50,[8]; [30],700 nM
same,EC50,[8]; [31],800 nM
same,EC50,[8]; [32],500 nM
same,EC50,[9]; [33],> 20000 nM
same,EC50,[9]; [34],5700 nM
same,EC50,[9]; [35],> 10000 nM
same,EC50,[10]; [36],> 20 µM
same,EC50,[10]; [37],> 10 µM
same,EC50,[10]; [38],> 20 µM
same,activity against the K103N mutation / isolate,"[10]; result in words, cytopathic cell killing assay",ineffective
same,EC50,[11]; [39],9.7 µM
same,EC50,[11]; [40],3.9 µM
same,EC50,[11]; [41],5.7 µM
same,EC50,[12]; [42],1700 nM
same,EC50,[12]; [43],1100 nM
same,EC50,[12]; [44],1100 nM
"Cc1cccc2c1nc(-c1c(F)cccc1F)n2Cc1c(F)cccc1F [compound 33, 1-(2,6-difluorobenzyl)-2-(2,6-difluorophenyl)-4-methylbenzimidazole]",IC50,"[1]; HIV-1 WT RT, read-out: IC50",200 nM
same,inhibition at 10 µM,[1]; [13],92%
same,IC50,"[1]; Table 1, quantity of drug required to reduce WT RT enzyme activity by 50%, read-out: IC50",200 nM
same,%inhibn (10µM),"[1]; Table 2, WT RT, 10 µM drug concentration",92%
same,IC50,"[1]; Table 7, HIV-1 WT RT, read-out: IC50",200 nM
same,inhibition at 1 µM,"[1]; Table 7, WT HIV-1 RT, 1 µM drug, read-out: %inhibn (1µM)",71%
same,IC50,"[1]; Table 11, WT RT, read-out: IC50",200 nM
same,IC50,"[1]; WT RT, read-out: IC50",200 nM
same,EC50,[2]; [14],16.7 µM
same,EC50,[2]; [15],> 10 µM
same,EC50,[2]; [16],> 10 µM
same,EC50,"[2]; Human immunodeficiency virus 1, MT4, Table 10 (values in µM), isolate K101E",16.7 µM
same,EC50,[3]; [17],2.3 µM
same,EC50,[3]; [18],3 µM
same,EC50,[3]; [19],3 µM
same,EC50,"[3]; Human immunodeficiency virus 1, MT4, Table 10 (values in µM), isolate Y188C",2.3 µM
same,EC50,[4]; [20],1400 nM
same,EC50,[4]; [21],27000 nM
same,EC50,[4]; [22],2700 nM
same,EC50,[5]; [23],100 nM
same,EC50,[5]; [24],100 nM
same,EC50,"[5]; Human immunodeficiency virus 1, MT4, Table 9, isolate 4XAZT",100 nM
same,EC50,[6]; [25],3500 nM
same,EC50,[6]; [26],3500 nM
same,EC50,[7]; [27],0.3 µM
same,EC50,[7]; [28],0.3 µM
same,EC50,[7]; [29],0.3 µM
same,EC50,"[7]; Human immunodeficiency virus 1, MT4, Table 10 (values in µM), isolate L1001",0.3 µM
same,EC50,[8]; [30],100 nM
same,EC50,[8]; [31],300 nM
same,EC50,[8]; [32],300 nM
same,EC50,[9]; [33],20000 nM
same,EC50,[9]; [34],> 10000 nM
same,EC50,[9]; [35],> 10000 nM
same,EC50,[10]; [36],8.1 µM
same,EC50,[10]; [37],> 20 µM
same,EC50,[10]; [38],> 20 µM
same,EC50,"[10]; Human immunodeficiency virus 1, MT4, Table 10 (values in µM)",8.1 µM
same,EC50,[11]; [39],2.8 µM
same,EC50,[11]; [40],2.8 µM
same,EC50,[11]; [41],2.8 µM
same,EC50,"[11]; Human immunodeficiency virus 1, MT4, Table 10 (values in µM), isolate V108l",2.8 µM
same,EC50,[12]; [42],200 nM
same,EC50,[12]; [43],200 nM
same,EC50,[12]; [44],200 nM
